According to ChEMBL document CHEMBL1128274, “6-Aminoquinolones: a new class of quinolone antibacterials?” (1995):
In brackets after ≈: the same amount, converted by molar mass.

Assays:
Assay type in all cases: functional
Enterobacter cloacae = assay: Tested in vitro for inhibitory activity against gram negative bacteria Enterobacter cloacae OMNFI 174 strain.
[1] = tested on: Staphylococcus epidermidis; assay: Tested in vitro for inhibitory activity against gram positive bacteria Staphylococcus epidermidis HCF berset C strain
Pseudomonas aeruginosa = assay: Tested in vitro for inhibitory activity against gram negative bacteria Pseudomonas aeruginosa ATCC 9027 strain
[2] = tested on: Acinetobacter calcoaceticus; assay: Tested in vitro for inhibitory activity against gram negative bacteria Acinetobacter calcoaceticus OSMPV 113 strain.
Shigella = assay: Tested in vitro for inhibitory activity against gram negative bacteria Shigella enteritidis
[3] = tested on: Staphylococcus epidermidis; assay: Tested in vitro for inhibitory activity against gram positive bacteria Staphylococcus epidermidis CPHL A2 strain
Escherichia coli [4] = assay: Tested in vitro for inhibitory activity against gram negative bacteria Escherichia coli ATCC 8739 strain
Enterococcus faecalis = assay: Tested in vitro for inhibitory activity against gram positive bacteria Streptococcus faecalis LEP Br strain
Staphylococcus aureus [5] = assay: Tested in vitro for inhibitory activity against gram positive bacteria Staphylococcus aureus ATCC 6538 strain
Providencia stuartii = assay: Tested in vitro for inhibitory activity against gram negative bacteria Providencia stuartii CNUR 5 strain
Klebsiella pneumoniae = assay: Tested in vitro for inhibitory activity against gram negative bacteria Klebsiella pneumoniae ATCC 10031 strain
Staphylococcus aureus [6] = assay: Tested in vitro for inhibitory activity against gram positive bacteria Staphylococcus aureus MPR 5 strain
Escherichia coli [7] = assay: Tested in vitro for inhibitory activity against gram negative bacteria Escherichia coli ISF 432 strain.
Escherichia coli [8] = assay: Tested in vitro for inhibitory activity against gram negative bacteria Escherichia coli ATCC 8739 cell lines at 25 ug/mL
Escherichia coli [9] = assay: Tested in vitro for inhibitory activity against gram negative bacteria Escherichia coli ISF 432 cell lines at 25 ug/mL

Row | Structure (SMILES) | MIC (Enterobacter cloacae) [µg/mL] | MIC [1] [µg/mL] | MIC (Pseudomonas aeruginosa) [µg/mL] | MIC [2] [µg/mL] | MIC (Shigella) [µg/mL] | MIC [3] [µg/mL] | MIC (Escherichia coli [4]) [µg/mL] | MIC (Enterococcus faecalis) [µg/mL] | MIC (Staphylococcus aureus [5]) [µg/mL] | MIC (Providencia stuartii) [µg/mL] | MIC (Klebsiella pneumoniae) [µg/mL] | MIC (Staphylococcus aureus [6]) [µg/mL] | MIC (Escherichia coli [7]) [µg/mL] | MIC (Escherichia coli [8]) [µg/mL] | MIC (Escherichia coli [9]) [µg/mL]
1 | C[C@@H]1CN(c2cc3c(cc2N)c(=O)c(C(=O)O)cn3C2CC2)C[C@H](C)N1 | 0.5 (≈ 1.4 µM) | 4 (≈ 11.2 µM) | 2 (≈ 5.61 µM) | 8 (≈ 22.4 µM) | 0.25 (≈ 0.701 µM) | 2 (≈ 5.61 µM) | 0.03 (≈ 0.0842 µM) | 32 (≈ 89.8 µM) | 8 (≈ 22.4 µM) | 4 (≈ 11.2 µM) | 0.03 (≈ 0.0842 µM) | 8 (≈ 22.4 µM) | 0.03 (≈ 0.0842 µM) | – | –
2 | CN1CCN(c2nc3c(c(N)c2N)c(=O)c(C(=O)O)cn3C2CC2)CC1 | 0.25 (≈ 0.698 µM) | 2 (≈ 5.58 µM) | 8 (≈ 22.3 µM) | 0.5 (≈ 1.4 µM) | 0.25 (≈ 0.698 µM) | 2 (≈ 5.58 µM) | 0.25 (≈ 0.698 µM) | 8 (≈ 22.3 µM) | 2 (≈ 5.58 µM) | 0.5 (≈ 1.4 µM) | 0.01 (≈ 0.0279 µM) | 2 (≈ 5.58 µM) | 0.01 (≈ 0.0279 µM) | – | –
3 | CN1CCN(c2cc3c(cc2N)c(=O)c(C(=O)O)cn3C(C)(C)C)CC1 | 1 (≈ 2.79 µM) | 4 (≈ 11.2 µM) | 4 (≈ 11.2 µM) | 4 (≈ 11.2 µM) | 1 (≈ 2.79 µM) | 2 (≈ 5.58 µM) | – | 32 (≈ 89.3 µM) | 2 (≈ 5.58 µM) | 4 (≈ 11.2 µM) | 0.06 (≈ 0.167 µM) | 2 (≈ 5.58 µM) | – | 0.06 (≈ 0.167 µM) | 0.06 (≈ 0.167 µM)
4 | Nc1cc2c(=O)c(C(=O)O)cn(C3CC3)c2cc1N1CCCC1 | 8 (≈ 25.5 µM) | 128 (≈ 408 µM) | 128 (≈ 408 µM) | 128 (≈ 408 µM) | 16 (≈ 51.1 µM) | 128 (≈ 408 µM) | 0.25 (≈ 0.798 µM) | 128 (≈ 408 µM) | 128 (≈ 408 µM) | 128 (≈ 408 µM) | 0.25 (≈ 0.798 µM) | 128 (≈ 408 µM) | 0.25 (≈ 0.798 µM) | – | –
5 | NCCSc1cc2c(cc1N)c(=O)c(C(=O)O)cn2C1CC1 | 128 (≈ 401 µM) | 128 (≈ 401 µM) | 128 (≈ 401 µM) | 128 (≈ 401 µM) | 128 (≈ 401 µM) | 128 (≈ 401 µM) | 1 (≈ 3.13 µM) | 128 (≈ 401 µM) | 128 (≈ 401 µM) | 128 (≈ 401 µM) | 2 (≈ 6.26 µM) | 128 (≈ 401 µM) | 1 (≈ 3.13 µM) | – | –
6 | CN1CCN(c2c(F)c(N)c3c(=O)c(C(=O)O)cn(C4CC4)c3c2F)CC1 | 0.03 (≈ 0.0793 µM) | 0.25 (≈ 0.661 µM) | 0.25 (≈ 0.661 µM) | 0.05 (≈ 0.132 µM) | 0.03 (≈ 0.0793 µM) | 0.12 (≈ 0.317 µM) | 0.004 (≈ 0.0106 µM) | 0.5 (≈ 1.32 µM) | 0.06 (≈ 0.159 µM) | 0.06 (≈ 0.159 µM) | 0.002 (≈ 0.00529 µM) | 0.06 (≈ 0.159 µM) | 0.002 (≈ 0.00529 µM) | – | –
7 | CC(C)(C)n1cc(C(=O)O)c(=O)c2cc(N)c(N3CCc4ccccc43)cc21 | 8 (≈ 21.2 µM) | 4 (≈ 10.6 µM) | 32 (≈ 84.8 µM) | 8 (≈ 21.2 µM) | 8 (≈ 21.2 µM) | 4 (≈ 10.6 µM) | 0.12 (≈ 0.318 µM) | 64 (≈ 170 µM) | 2 (≈ 5.3 µM) | 4 (≈ 10.6 µM) | 0.12 (≈ 0.318 µM) | 2 (≈ 5.3 µM) | 0.12 (≈ 0.318 µM) | – | –
8 | NCCN1CCN(c2cc3c(cc2N)c(=O)c(C(=O)O)cn3C2CC2)CC1 | 2 (≈ 5.38 µM) | 32 (≈ 86.2 µM) | 32 (≈ 86.2 µM) | 32 (≈ 86.2 µM) | 2 (≈ 5.38 µM) | 64 (≈ 172 µM) | 0.5 (≈ 1.35 µM) | 128 (≈ 345 µM) | 128 (≈ 345 µM) | 128 (≈ 345 µM) | 0.5 (≈ 1.35 µM) | 128 (≈ 345 µM) | 0.5 (≈ 1.35 µM) | – | –
9 | CC(C)(C)n1cc(C(=O)O)c(=O)c2cc(N)c(N3CCN(c4ccccn4)CC3)cc21 | 64 (≈ 152 µM) | 2 (≈ 4.74 µM) | 128 (≈ 304 µM) | 1 (≈ 2.37 µM) | 64 (≈ 152 µM) | 1 (≈ 2.37 µM) | 0.5 (≈ 1.19 µM) | 16 (≈ 38 µM) | 1 (≈ 2.37 µM) | 128 (≈ 304 µM) | 0.25 (≈ 0.593 µM) | 1 (≈ 2.37 µM) | 0.5 (≈ 1.19 µM) | – | –
10 | CC1CN(c2cc3c(cc2N)c(=O)c(C(=O)O)cn3C2CC2)CCN1 (stereo unspecified) | 0.25 (≈ 0.73 µM) | 4 (≈ 11.7 µM) | 2 (≈ 5.84 µM) | 16 (≈ 46.7 µM) | 0.25 (≈ 0.73 µM) | 4 (≈ 11.7 µM) | 0.03 (≈ 0.0876 µM) | 32 (≈ 93.5 µM) | 16 (≈ 46.7 µM) | 16 (≈ 46.7 µM) | 0.03 (≈ 0.0876 µM) | 16 (≈ 46.7 µM) | 0.03 (≈ 0.0876 µM) | – | –
11 | CC(C)(C)n1cc(C(=O)O)c(=O)c2cc(N)c(N3CCc4ccccc4C3)cc21 | 8 (≈ 20.4 µM) | 1 (≈ 2.55 µM) | 32 (≈ 81.7 µM) | 2 (≈ 5.11 µM) | 8 (≈ 20.4 µM) | 0.5 (≈ 1.28 µM) | 0.12 (≈ 0.307 µM) | 8 (≈ 20.4 µM) | 0.25 (≈ 0.639 µM) | 4 (≈ 10.2 µM) | 0.12 (≈ 0.307 µM) | 0.5 (≈ 1.28 µM) | 0.12 (≈ 0.307 µM) | – | –
12 | O=C(O)c1cn(C2CC2)c2c(F)c(N3CCSCC3)c(F)cc2c1=O | 0.25 (≈ 0.682 µM) | 0.06 (≈ 0.164 µM) | 1 (≈ 2.73 µM) | 1 (≈ 2.73 µM) | 0.25 (≈ 0.682 µM) | 0.06 (≈ 0.164 µM) | 0.01 (≈ 0.0273 µM) | 0.5 (≈ 1.36 µM) | 0.03 (≈ 0.0819 µM) | 0.12 (≈ 0.328 µM) | 0.008 (≈ 0.0218 µM) | 0.03 (≈ 0.0819 µM) | 0.008 (≈ 0.0218 µM) | – | –
